Results as given in patent US20260199273A1, “Compounds for the Treatment of Neuromuscular Disorders” (NMD PHARMA A/S, priority 2022, published 2026).

Legend:
CIC-1 ion channel = target: T1, CIC-1 ion channel (Rattus norvegicus, UniProt P35524); assay: Electrophysiological measurement of compound inhibition of CIC-1 in rat muscle (Gm in soleus fibres, three micro-electrodes); type: cell-based; conditions: Gm in individual fibres of whole rat soleus muscles, approx. 30° C., four increasing compound concentrations; read-out: Potency Range (EC50, inhibition of CIC-1 ion channel)
T1 construct: from tissue; host or cells: whole soleus muscle of 12-14 week old Wistar rats
T1 sequence (P35524 1-994): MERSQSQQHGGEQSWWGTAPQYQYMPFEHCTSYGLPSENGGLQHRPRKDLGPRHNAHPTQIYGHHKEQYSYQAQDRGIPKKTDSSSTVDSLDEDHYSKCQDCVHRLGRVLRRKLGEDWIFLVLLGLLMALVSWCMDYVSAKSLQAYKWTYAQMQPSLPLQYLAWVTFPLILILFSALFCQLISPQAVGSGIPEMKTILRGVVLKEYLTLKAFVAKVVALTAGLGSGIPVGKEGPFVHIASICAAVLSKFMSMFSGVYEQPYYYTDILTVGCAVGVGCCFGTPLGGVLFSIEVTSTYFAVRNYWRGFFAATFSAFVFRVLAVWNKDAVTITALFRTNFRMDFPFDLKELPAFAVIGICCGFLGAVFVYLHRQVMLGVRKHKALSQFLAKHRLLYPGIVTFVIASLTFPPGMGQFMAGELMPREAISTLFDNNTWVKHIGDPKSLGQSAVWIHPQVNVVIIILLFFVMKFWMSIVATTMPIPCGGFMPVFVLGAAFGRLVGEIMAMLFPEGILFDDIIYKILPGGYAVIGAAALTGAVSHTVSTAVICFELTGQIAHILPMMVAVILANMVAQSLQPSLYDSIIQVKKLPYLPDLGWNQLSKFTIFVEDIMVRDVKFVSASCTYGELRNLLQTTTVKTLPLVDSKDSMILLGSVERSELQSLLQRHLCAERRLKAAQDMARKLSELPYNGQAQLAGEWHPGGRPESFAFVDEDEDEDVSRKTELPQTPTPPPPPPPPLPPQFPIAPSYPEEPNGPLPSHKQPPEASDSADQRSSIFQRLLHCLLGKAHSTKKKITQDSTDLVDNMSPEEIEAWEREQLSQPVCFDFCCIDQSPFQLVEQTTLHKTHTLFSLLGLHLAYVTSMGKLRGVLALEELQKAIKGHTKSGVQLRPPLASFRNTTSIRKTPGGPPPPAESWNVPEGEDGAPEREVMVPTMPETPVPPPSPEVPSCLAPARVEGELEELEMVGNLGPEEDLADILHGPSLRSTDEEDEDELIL
Procedure: Apparent CIC-1 affinity was reported by the concentration of compound at which 50% of the compound's full inhibition of CIC-1 was observed (EC50) (see also WO2019/115777).
Experimentally, Gm was measured in individual fibres of whole rat soleus muscles using a three micro-electrodes technique described in this example and in full detail elsewhere (Riisager et al., Determination of cable parameters in skeletal muscle fibres during repetitive firing of action potentials. Journal of Physiology, 2014, 592, 4417-4429). Briefly, intact rat soleus muscles were dissected out from 12-14 week old Wistar rats and placed in an experimental chamber that was perfused with a standard Krebs Ringer solution containing 122 mM NaCl, 25 mM NaHCO3, 2.8 mM KCl, 1.2 mM KH2PO4, 1.2 mM MgSO4, 1.3 mM CaCl2, 5.0 mM D-glucose. During experiments, the solution was kept at approx. 30° C. and continuously equilibrated with a mixture of 95% O2 and 5% CO2, pH ~7.4. The experimental chamber was placed in Nikon upright microscope that was used to visualize individual muscle fibres and the three electrodes (glass pipettes filled with 2 M potassium citrate). For Gm measurements, the electrodes were inserted into the same fibre with known inter-electrode distances of 0.35-0.5 mm (V1-V2, X1) and 1.1-1.5 mm (V1-V3, X3). The membrane potential of the impaled muscle fibre was recorded by all electrodes. Two of the electrodes were furthermore used to inject 50 ms current pulses of −30 nA. […] The steady state voltage deflection at each distance was divided by the magnitude of current injected (−30 nA) and the resulting transfer resistances were plotted against inter-electrode distance and the data was fitted to a mono-exponential function from which Gm could be calculated using linear cable theory.
To establish a dose response relationship, Gm was first determined in 10 muscle fibres in the absence of compound and then at four increasing compound concentrations with Gm determinations in 5-10 fibres at each concentration. The average Gm values at each concentration were plotted against compound concentration and the data was fitted to sigmoidal function to obtain an EC5o value.

[1] = system: isolated rat soleus nerve-muscle preparations; assay: Measurement of force in an in vitro model: recovery of nerve-stimulated contractile force after tubocurarine; conditions: 40 min, after 40 mins of compound exposure, tubocurarine (115 nM) for 90 minutes, read-out: Point increase (%): percentage increase of initial force that was restored; for activation at 50 µM: 50 μM of test compound; for activation at 10 µM: 10 μM of test compound
Procedure: In one aspect, the invention relates to a method for recovery of force in muscles with neuromuscular dysfunction, said method comprising administering a compound or a composition as defined herein to a subject in need thereof. The term “recovery of force in muscles with neuromuscular dysfunction” as used herein refers to the ability of a compound to recover contractile force in nerve-stimulated healthy rat muscle after exposure to submaximal concentration (115 nM) of tubocurarine for 90 minutes.
Recovery of force is quantified as the percentage of the force prior to tubocurarine that is recovered after addition of the compound. In one embodiment, said recovery of force is >5%, such as >10%, such as >15%, such as >20%, such as >25%, such as >30%, such as >35%.
The current disclosure relates to compounds that inhibit CIC-1 ion channels and increase muscle excitability and thereby improve muscle function in clinical conditions where muscle activation is failing. Such conditions result in loss of contractile function of skeletal muscle, weakness and excessive fatigue. In this series of experiments the compounds were tested for their ability to restore contractile function of isolated rat muscle when the neuromuscular transmission had been compromised akin to neuromuscular disorders.
Experimentally, soleus muscles from 4-5 week old rats were isolated with the motor nerve remaining attached. The nerve-muscle preparations were mounted in experimental setups that enabled electrical stimulation of the motor nerve. Stimulation of the motor nerve led to activation of the muscle fibres and ensuing force production that was recorded. The nerve-muscle preparations were also in these experiments incubated in the standard Krebs Ringer (see example 15) and the solution was heated to 30° C. and continuously equilibrated with a mixture of 95% O2 and 5% CO2, pH ~7.4.
After mounting the nerve-muscle preparation in the experimental setup, the contractile function of the muscle was initially assessed under the control conditions. Sub-maximal concentration of tubocurarine (115 nM), an acetylcholine receptor antagonist, was then added to the experimental bath to impose partial inhibition of the ability of the motor nerve to activate the muscle fibres. The experimental condition mimics the failing neuromuscular transmission in a range of neuromuscular disorders. After addition of tubocurarine the contractile force declined over the next 90 minutes to 10-50% of the control force. The test compound was then added to obtain the required compound concentration in the bath and the contractile force recovered was measured. To quantify the ability of the compound to restore force the percentage of the initial force that was restored was determined after 40 mins of compound exposure and the point increase is reported in Tables 3 to 7.

Row | EC50 (CIC-1 ion channel) [nM] | Structure (SMILES) | activation at 50 µM [1] [%] | activation at 10 µM [1] [%]
1 | 2000 to 10000 | Cc1cc2c(c(C(=O)O)c1Cl)C1CCC2C1 (stereo not shown) [Compound A-20, 4-chloro-5-methyltricyclo[6.2.1.0^2,7]undeca-2,4,6-triene-3-carboxylic acid] | 38 | –
2 | 10000 to 20000 | Cc1c(Cl)cc2c(c1C(=O)O)C1CCC2C1 (stereo not shown) [Compound A-21, 5-chloro-4-methyltricyclo[6.2.1.0^2,7]undeca-2(7),3,5-triene-3-carboxylic acid] | 42 | –
3 | 2000 to 10000 | CSc1c(Cl)cc2c(c1C(=O)O)CCC2 [Compound A-23, 6-Chloro-5-(methylsulfanyl)-2,3-dihydro-1H-indene-4-carboxylic acid] | 44 | –
4 | 2000 to 10000 | COc1cc2c(c(C(=O)O)c1Cl)CCCCC2 [Compound A-24, 2-Chloro-3-methoxy-6,7,8,9-tetrahydro-5H-benzo[7]annulene-1-carboxylic acid] | 43 | –
5 | 200 to 2000 | O=C(O)c1c2c(cc(Cl)c1OC(F)F)CCCC2 [Compound A-25, 3-Chloro-2-(difluoromethoxy)-5,6,7,8-tetrahydronaphthalene-1-carboxylic acid] | – | 43
6 | 200 to 2000 | O=C(O)c1c(F)c(Cl)cc2c1CCCC2 [Compound A-26, 3-Chloro-2-fluoro-5,6,7,8-tetrahydronaphthalene-1-carboxylic acid] | – | 52
7 | 2000 to 10000 | O=C(O)c1c(Cl)c(F)cc2c1CCCC2 [Compound A-27, 2-chloro-3-fluoro-5,6,7,8-tetrahydronaphthalene-1-carboxylic acid] | – | 38
8 | 2000 to 10000 | Cc1cc2c(c(C(=O)O)c1Cl)CCCC2 [Compound A-28, 2-chloro-3-methyl-5,6,7,8-tetrahydronaphthalene-1-carboxylic acid] | 39 | –
9 | 2000 to 10000 | COc1c(Cl)cc2c(c1C(=O)O)C1CCC2CC1 [Compound A-29, 5-Chloro-4-methoxytricyclo[6.2.2.0^2,7]dodeca-2,4,6-triene-3-carboxylic acid] | 42 | –
10 | 200 to 2000 | O=C(O)c1c(Cl)c(Cl)cc2c1CCCC2 [Compound A-30, 2,3-Dichloro-5,6,7,8-tetrahydronaphthalene-1-carboxylic acid] | – | 45

More lines, now with the values behind:

Row | Structure (SMILES) | EC50 (CIC-1 ion channel) [nM] | activation at 50 µM [1] [%] | activation at 10 µM [1] [%]
11 | Cc1cc2c(c(C(=O)O)c1C)CCCC2 [Compound A-5, 2,3-dimethyl-5,6,7,8-tetrahydronaphthalene-1-carboxylic acid] | 10000 to 20000 | 43 | –
12 | COc1c(Cl)cc2c(c1C(=O)O)CCC2 [Compound A-6, 6-Chloro-5-methoxy-2,3-dihydro-1H-indene-4-carboxylic acid] | 200 to 2000 | – | 42
13 | COc1c(Cl)cc2c(c1C(=O)O)CCCC2 [Compound A-8, 3-Chloro-2-methoxy-5,6,7,8-tetrahydronaphthalene-1-carboxylic acid] | 200 to 2000 | – | 50
14 | Cc1c(Cl)cc2c(c1C(=O)O)CCCC2 [Compound A-9, 3-Chloro-2-methyl-5,6,7,8-tetrahydronaphthalene-1-carboxylic acid] | 2000 to 10000 | – | 14
15 | O=C(O)c1c2c(cc(Cl)c1OC(F)F)CCC2 [Compound A-10, 6-Chloro-5-(difluoromethoxy)-2,3-dihydro-1H-indene-4-carboxylic acid] | 2000 to 10000 | – | 36
16 | CCc1c(Cl)cc2c(c1C(=O)O)CCC2 [Compound A-13, 6-Chloro-5-ethyl-2,3-dihydro-1H-indene-4-carboxylic acid] | 10000 to 20000 | 26 | –
17 | Cc1c(Cl)cc2c(c1C(=O)O)OCCC2 [Compound A-14, 6-Chloro-7-methyl-3,4-dihydro-2H-1-benzopyran-8-carboxylic acid] | 10000 to 20000 | 39 | –
18 | COc1c(Cl)cc2c(c1C(=O)O)OCC2 [Compound A-15, 5-Chloro-6-methoxy-2,3-dihydro-1-benzofuran-7-carboxylic acid] | 2000 to 10000 | 40 | –
19 | COc1c(Cl)cc2c(c1C(=O)O)C1CCC2C1 (stereo not shown) [Compound A-16, 5-Chloro-4-methoxytricyclo[6.2.1.0^2,7]undeca-2(7),3,5-triene-3-carboxylic acid] | 200 to 2000 | – | 43
20 | O=C(O)c1cc(Cl)c(F)c2c1CCCC2 [Compound A-17, 3-Chloro-4-fluoro-5,6,7,8-tetrahydronaphthalene-1-carboxylic acid] | 10000 to 20000 | 41 | –
21 | COc1c(F)cc2c(c1C(=O)O)CCCC2 [Compound A-18, 3-Fluoro-2-methoxy-5,6,7,8-tetrahydronaphthalene-1-carboxylic acid] | 200 to 2000 | – | 46
22 | COc1c(Cl)c(F)c2c(c1C(=O)O)CCCC2 [Compound A-19, 3-Chloro-4-fluoro-2-methoxy-5,6,7,8-tetrahydronaphthalene-1-carboxylic acid] | 200 to 2000 | 41 | –
23 | COc1c(Cl)cc2c(c1C(=O)O)CCCCC2 [Compound A-22, 3-Chloro-2-methoxy-6,7,8,9-tetrahydro-5H-benzo[7]annulene-1-carboxylic acid] | 200 to 2000 | – | 33
